Data from US4492711A, “Benzamides, their salts, and pharmaceutical compositions containing them” (SANOFI, priority 1982, dated 1985).

Experiments:
[1] = target: T1, gastric histamine H2 receptors (Rattus norvegicus, UniProt P25102); experiment: Antagonism of gastric hypersecretion induced by histamine in the atropinized rat (Ghosh and Schild modified according to Black et al.); format: in vivo; conditions: intravenous; for Relative potency (cimetidine = 1): ID50-based, compared to cimetidine; for ED50: single dose, histamine i.v. infusion 15 mcmol/kg/hour, read-out: ID50 (dose which inhibits by 50% the gastric hypersecretion induced by histamine)
T1 construct: the gastric secretion is measured by perfusion of a physiological solution at a constant speed in the stomach of the animal; from tissue; host or cells: stomach of the living atropinized rat (in vivo, perfused stomach)
Method: According to this test, a gastric acid hypersecretion is induced by intravenous infusion of a sub-maximal dose of histamine equivalent to 15 mcmol/kg/hour and the gastric secretion is measured by perfusion of a physiological solution at a constant speed in the stomach of the animal.
The ID50 represents the index of the gastric H2 -blocking action.

[2] = system: gastric acid secretion; conditions: as oxalate; cited from earlier work
[3] = system: hypersecretion induced by dimaprit; experiment: Antisecretory activity in the cat bearing a gastric fistula, dimaprit-induced hypersecretion (Emas et al.); format: in vivo; conditions: cat with gastric fistula, intragastric
Excerpt: The antisecretoy activity of the products of the present invention has been evaluated in the cat bearing a gastric fistula according to the method of Emas et al (Gastroenterology, 1960, 39, 771) by using, as hypersecretory agent, dimaprit at the dose of 640 mcg/kg/k.

T1 sequence (P25102 whole entry, the tested form may be a part): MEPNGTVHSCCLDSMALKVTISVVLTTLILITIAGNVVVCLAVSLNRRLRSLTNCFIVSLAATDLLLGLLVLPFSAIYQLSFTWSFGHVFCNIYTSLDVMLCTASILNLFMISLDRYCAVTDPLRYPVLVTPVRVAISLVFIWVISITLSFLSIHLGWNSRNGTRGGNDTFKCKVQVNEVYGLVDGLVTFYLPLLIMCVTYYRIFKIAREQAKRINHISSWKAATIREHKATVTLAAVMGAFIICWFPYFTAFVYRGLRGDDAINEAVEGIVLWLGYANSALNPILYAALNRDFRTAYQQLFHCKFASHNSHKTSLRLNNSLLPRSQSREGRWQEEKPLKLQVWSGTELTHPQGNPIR

Row | SMILES | Relative potency (cimetidine = 1) [1] | ED50, gastric acid secretion inhibiting activity in the rat [2] [mg/kg] | ED50 [1] [µmol/kg] | antagonism of the hypersecretion induced by dimaprit ([3]; an hour before dimaprit perfusion (640 mcg/kg/k)) | activity relative to cimetidine against hypersecretion induced by dimaprit ([3]; an hour before dimaprit perfusion, cimetidine as reference)
1 | CN(C)Cc1ccc(CSCCNC(=O)c2ccc(S(N)(=O)=O)cc2)o1 [Compound A, N-[2-(5-dimethylaminomethylfuran-2-ylmethylthio)ethyl]4-sulfamoylbenzamide, reference compound] | 0.42 | 2.54 | – | – | –
2 | CNC(=C[N+](=O)[O-])NCCSCc1ccc(CN(C)C)o1 [Ranitidine, N-[2-[[5-[(dimethylamino)methyl]furfuryl]thio]ethyl]-N'-methyl-2-nitro-1,1-ethenediamine, reference compound] | 3.80 | – | – | – | –
3 | CNC(=S)Nc1cccc(C(=O)NCCSCc2ccc(CN(C)C)o2)c1 [SR 57914, 3-(3-methylthioureido)-N-[2-(5-dimethylaminomethylfuran-2-ylmethylthio)ethyl]benzamide] | 2.11 | – | 0.45 | antagonizes in dose depending way the hypersecretion induced by dimaprit | at least equal to that of cimetidine
4 | CNC(=O)Nc1cccc(C(=O)NCCSCc2ccc(CN(C)C)o2)c1 [SR 57934, 3-(3-methylureido)-N-[2-(5-dimethylaminomethylfuran-2-ylmethylthio)ethyl]benzamide] | 0.62 | – | 1.53 | – | –
5 | CNC(=NC#N)Nc1cccc(C(=O)NCCSCc2ccc(CN(C)C)o2)c1 [SR 57970, 3-(2-cyano-3-methylguanidino)-N-[2-(5-dimethylaminomethylfuran-2-ylmethylthio)ethyl]benzamide] | 1.90 | – | 0.5 | – | –
6 | CNC(=C[N+](=O)[O-])Nc1cccc(C(=O)NCCSCc2ccc(CN(C)C)o2)c1 [SR 58028 A, 3-[N-(1-methylamino-2-nitroethenyl)amino]-N-[2-(5-dimethylaminomethylfuran-2-ylmethylthio)ethyl]benzamide] | 4.13 | – | 0.23 | – | –
